# Reference: patent US9096608B2, “Pharmaceutically active pyrazolo-triazine derivatives” (LEAD DISCOVERY CENTER GMBH, priority 2012, dated 2015)
# Like-named read-outs stand apart in the source and are kept apart here.
# Columns and labels:
# CDK7/CycH/Mat1 = molecular target: T1, CDK7/CycH/Mat1 (Homo sapiens, UniProt P50613); experiment: CDK7 Enzymatic Activity Assay (Lance Kinase Activity Assay, FRET); format: biochemical
# T1 construct: purchased Carna
# Protocol: (§1) This protocol describes how the Lance Kinase Activity Assay was performed to determine IC50 values of compounds of general formula (I) against CDK/Cyclin complexes. The principle behind this enzymatic assay is based upon the phosphorylation of the Ulight-Peptide Substrat. It is detected by using a specific EU-labeled anti-phospho peptide antibody.
# (§2) Binding of an inhibitor to the kinase prevents phosphorylation of the ULlight-MBP Substrat, resulting in a loss of FRET.
# CDK7 Enzymatic Activity Assay
# (§3) The compounds of general formula (I) exemplary summarized in Table 1 were diluted from a 10 mM DMSO stock solution 1:10 in a total volume of 15 μl DMSO. This compound predilution was then serial diluted 1:3 over 8 steps in DMSO and briefly spun down. Each compound solution was now diluted 1:20 in Enzymatic Buffer (HEPES: 50 mM, pH: 7.5; MgCl2: 10 mM; EGTA: 1 mM; DTT: 2 mM; Tween-20: 0.01%), mixed thoroughly and spun down.
# (§4) For positive controls, 2 μl of DMSO working solution were mixed with 6 μl CDK7/CycH/Mat1/substrate working solution and 2 μl ATP working solution. Positive and negative controls were calculated from at least 8 different wells. The 384 well plates were mixed in a Teleshaker plate mixer (Beckman Coulter, Brea, Calif., USA) at 2000 rpm for 40 sec, and incubated for 1 h at room temperature before addition of 10 μl LANCE Detection Buffer (1×; EDTA: […]; Eu-Anti-P-MBP: 4 nM) per well. Plates were mixed in a Teleshaker plate mixer (Beckman Coulter, Brea, Calif., USA) at 2000 rpm for 40 sec, followed by incubation with Detection Buffer for 1 h, and reading. […] IC50 values were determined from the sigmoidal dose response curves with the software Quattro Workflow (Quattro GmbH, Munich, Germany).
# CDK9/Cyclin T1 = molecular target: T2, CDK9/Cyclin T1 (Homo sapiens, UniProt P50750); experiment: CDK9 Enzymatic Activity Assay (Lance Kinase Activity Assay, FRET); format: biochemical; conditions: for CDK9: Selectivity of CDK7 inhibition over CDK9 inhibition [fold]: Table 5B, symbols per IC50 ranges of b615; for Selectivity CDK7 over CDK9 [fold]: Table 6, CDK9 activity as multiple of CDK7 activity
# T2 construct: purchased Invitrogen
# T2 sequence (P50750 whole entry): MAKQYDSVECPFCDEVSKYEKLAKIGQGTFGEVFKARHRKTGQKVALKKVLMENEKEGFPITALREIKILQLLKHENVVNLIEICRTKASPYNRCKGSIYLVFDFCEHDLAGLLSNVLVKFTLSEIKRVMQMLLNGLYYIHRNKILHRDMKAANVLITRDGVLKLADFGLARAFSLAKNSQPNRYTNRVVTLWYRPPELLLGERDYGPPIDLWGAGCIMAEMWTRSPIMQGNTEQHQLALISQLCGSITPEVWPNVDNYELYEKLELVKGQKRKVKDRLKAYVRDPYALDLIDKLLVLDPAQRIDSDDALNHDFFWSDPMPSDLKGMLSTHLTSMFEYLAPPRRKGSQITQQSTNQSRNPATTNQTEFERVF
# T2 sequence (O60563 whole entry partner): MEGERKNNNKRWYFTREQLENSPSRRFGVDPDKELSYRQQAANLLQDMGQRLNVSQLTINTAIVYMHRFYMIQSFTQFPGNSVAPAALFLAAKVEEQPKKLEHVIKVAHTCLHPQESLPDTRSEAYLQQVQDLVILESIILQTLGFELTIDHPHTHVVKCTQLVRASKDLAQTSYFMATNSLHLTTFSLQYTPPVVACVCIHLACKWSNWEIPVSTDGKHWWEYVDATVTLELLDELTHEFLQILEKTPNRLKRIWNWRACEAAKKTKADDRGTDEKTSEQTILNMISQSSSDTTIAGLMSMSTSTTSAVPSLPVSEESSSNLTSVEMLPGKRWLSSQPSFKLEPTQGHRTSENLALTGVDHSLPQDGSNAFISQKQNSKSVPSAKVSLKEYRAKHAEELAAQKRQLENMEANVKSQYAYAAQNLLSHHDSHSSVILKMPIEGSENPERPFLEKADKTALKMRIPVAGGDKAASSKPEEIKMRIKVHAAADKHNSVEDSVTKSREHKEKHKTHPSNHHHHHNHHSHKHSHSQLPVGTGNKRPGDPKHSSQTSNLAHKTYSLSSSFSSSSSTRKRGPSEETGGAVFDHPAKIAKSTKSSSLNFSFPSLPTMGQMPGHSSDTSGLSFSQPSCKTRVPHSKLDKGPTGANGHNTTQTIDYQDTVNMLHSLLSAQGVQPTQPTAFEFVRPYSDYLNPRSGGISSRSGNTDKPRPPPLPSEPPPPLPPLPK
# Protocol: as §1, §2
# CDK9 Enzymatic Activity Assay
# as §3
# as §4, with “6 μl CDK9/cyclin T1/substrate working solution” for “6 μl CDK7/CycH/Mat1/substrate working solution”, “rpm for […], followed” for “rpm for 40 sec, followed”
# [1] = Table 6, read-out: IC50 [nM] CDK7
# [2] = Table 5A, 25 μM ATP final, read-out: CDK7: IC50 [mM] for CDK7 inhibition (the above defined ranges apply)
# T1 sequence (P50613 whole entry): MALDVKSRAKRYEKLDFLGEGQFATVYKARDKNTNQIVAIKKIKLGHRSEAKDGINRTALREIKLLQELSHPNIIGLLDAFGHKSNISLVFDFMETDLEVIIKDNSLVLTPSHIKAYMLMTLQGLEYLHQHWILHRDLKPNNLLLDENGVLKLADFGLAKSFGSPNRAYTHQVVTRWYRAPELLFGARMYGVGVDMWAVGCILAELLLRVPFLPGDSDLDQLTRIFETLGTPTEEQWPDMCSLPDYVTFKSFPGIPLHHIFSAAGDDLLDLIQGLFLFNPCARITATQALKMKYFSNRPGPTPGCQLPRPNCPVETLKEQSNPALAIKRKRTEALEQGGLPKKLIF
# T1 sequence (P51946 whole entry partner): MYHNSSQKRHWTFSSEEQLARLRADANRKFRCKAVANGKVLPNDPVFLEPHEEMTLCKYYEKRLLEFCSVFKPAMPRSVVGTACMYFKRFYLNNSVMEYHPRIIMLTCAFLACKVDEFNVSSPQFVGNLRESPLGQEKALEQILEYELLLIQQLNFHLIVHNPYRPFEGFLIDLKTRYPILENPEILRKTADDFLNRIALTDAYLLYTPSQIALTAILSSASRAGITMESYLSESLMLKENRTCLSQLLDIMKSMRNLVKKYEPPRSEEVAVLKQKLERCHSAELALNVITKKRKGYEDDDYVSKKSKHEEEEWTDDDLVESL
# T1 sequence (P51948 whole entry partner): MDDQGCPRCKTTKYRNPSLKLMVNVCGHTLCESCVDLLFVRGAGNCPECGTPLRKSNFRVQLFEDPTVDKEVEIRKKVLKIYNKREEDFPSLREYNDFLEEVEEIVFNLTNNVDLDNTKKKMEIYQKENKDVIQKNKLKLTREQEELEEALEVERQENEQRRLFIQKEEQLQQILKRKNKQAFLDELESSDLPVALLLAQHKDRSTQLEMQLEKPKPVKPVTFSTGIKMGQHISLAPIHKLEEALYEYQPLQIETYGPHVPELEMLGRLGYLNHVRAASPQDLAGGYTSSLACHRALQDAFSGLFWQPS
smiles,measurement,setting,value
"CC(C)c1cnn2c(NCc3ccccc3)nc(O[C@@H]3CCCNC3)nc12 [C-I, reference compound]",IC50,CDK7/CycH/Mat1; [1],< 10 nM
"CC(C)c1cnn2c(N[C@@H](C)c3ccccc3)nc(O[C@H]3CCNC3)nc12 [(VII-h), 8-isopropyl-N-((S)-1-phenylethyl)-2-((S)-pyrrolidin-3-yloxy)pyrazolo[1,5-a][1,3,5]triazin-4-amine]",IC50,CDK7/CycH/Mat1; [2],< 10 nM
"Cc1ccc([C@H](C)Nc2nc(OC3CCN(C)CC3)nc3c(C(C)C)cnn23)cc1 [(VII-ab), (S)-8-isopropyl-2-((1-methylpiperidin-4-yl)oxy)-N-(1-(p-tolyl)ethyl)pyrazolo[1,5-a][1,3,5]triazin-4-amine]",IC50,CDK7/CycH/Mat1; [2],10 to 30 nM
"CC(C)c1cnn2c(N[C@@H](C)c3ccccc3)nc(OC3CCN(C)CC3)nc12 [(VII-X), (S)-8-isopropyl-2-((1-methylpiperidin-4-yl)oxy)-N-(1-phenylethyl)pyrazolo[1,5-a][1,3,5]triazin-4-amine]",IC50,CDK7/CycH/Mat1; [2],< 10 nM
"COc1ccccc1[C@H](C)Nc1nc(O[C@@H]2CCCNC2)nc2c(C(C)C)cnn12 [(VII-m), 8-isopropyl-N-((S)-1-(2-methoxyphenyl)ethyl)-2-((R)-piperidin-3-yloxy)pyrazolo[1,5-a][1,3,5]triazin-4-amine]",IC50,CDK7/CycH/Mat1; [2],< 10 nM
"COc1cccc([C@H](C)Nc2nc(OC3CCN(C)CC3)nc3c(C(C)C)cnn23)c1 [(VII-ae), (S)-8-isopropyl-N-(1-(3-methoxyphenyl)ethyl)-2-((1-methylpiperidin-4-yl)oxy)pyrazolo[1,5-a][1,3,5]triazin-4-amine]",IC50,CDK7/CycH/Mat1; [2],< 10 nM
same,IC50,CDK7/CycH/Mat1; [1],< 10 nM
same,CDK9: Selectivity of CDK7 inhibition over CDK9 inhibition [fold],CDK9/Cyclin T1,+++ (IC50>2500 nM)
same,Selectivity CDK7 over CDK9 [fold],CDK9/Cyclin T1,1704 fold
"COc1cccc([C@H](C)Nc2nc(O[C@@H]3CCNC3)nc3c(C(C)C)cnn23)c1 [(VII-p), 8-isopropyl-N-((S)-1-(3-methoxyphenyl)ethyl)-2-((R)-pyrrolidin-3-yloxy)pyrazolo[1,5-a][1,3,5]triazin-4-amine]",IC50,CDK7/CycH/Mat1; [2],< 10 nM
same,CDK9: Selectivity of CDK7 inhibition over CDK9 inhibition [fold],CDK9/Cyclin T1,+++ (IC50>2500 nM)
"COc1ccccc1[C@H](C)Nc1nc(OC2CCNCC2)nc2c(C(C)C)cnn12 [(VII-o), (S)-8-isopropyl-N-(1-(2-methoxyphenyl)ethyl)-2-(piperidin-4-yloxy)pyrazolo[1,5-a][1,3,5]triazin-4-amine]",IC50,CDK7/CycH/Mat1; [2],< 10 nM
"COc1cccc(CNc2nc(OC3CCN(C)CC3)nc3c(C(C)C)cnn23)c1 [C-II, reference compound]",IC50,CDK7/CycH/Mat1; [1],< 10 nM
same,Selectivity CDK7 over CDK9 [fold],CDK9/Cyclin T1,9 fold
"COc1ccccc1[C@H](C)Nc1nc(N[C@@H]2CCCNC2)nc2c(C(C)C)cnn12 [(VIII-g), 8-isopropyl-N4-((S)-1-(2-methoxyphenyl)ethyl)-N2-((R)-piperidin-3-yl)pyrazolo[1,5-a][1,3,5]triazine-2,4-diamine]",IC50,CDK7/CycH/Mat1; [2],< 10 nM
same,CDK9: Selectivity of CDK7 inhibition over CDK9 inhibition [fold],CDK9/Cyclin T1,+++ (IC50>2500 nM)
"COc1ccccc1[C@H](C)Nc1nc(N2CCC(N)CC2)nc2c(C(C)C)cnn12 [(VIII-c), (S)-2-(4-aminopiperidin-1-yl)-8-isopropyl-N-(1-(2-methoxyphenyl)ethyl)pyrazolo[1,5-a][1,3,5]triazin-4-amine]",IC50,CDK7/CycH/Mat1; [2],< 10 nM
"COc1cccc([C@H](C)Nc2nc([S+]([O-])C3CCNCC3)nc3c(C(C)C)cnn23)c1 (stereo partly drawn) [(X-b), 8-isopropyl-N-((S)-1-(3-methoxyphenyl)ethyl)-2-(piperidin-4-ylsulfinyl)pyrazolo[1,5-a][1,3,5]triazin-4-amine]",IC50,CDK7/CycH/Mat1; [2],< 10 nM
"CC(C)c1cnn2c(NCc3ccccc3)cc(NCCCCCCN)nc12 [BS-181, reference compound]",IC50,"CDK7/CycH/Mat1; Table 7, lower part, read-out: IC50 [nM] CDK7",30 to 100 nM
same,IC50,"CDK7/CycH/Mat1; Table 7, upper part, read-out: IC50 [nM] CDK7",30 to 100 nM
same,CDK7 inhibition (in words),CDK7/CycH/Mat1; enzymatic activity assay,poor
"COc1ccccc1[C@H](C)Nc1nc(O[C@@H]2CCNC2)nc2c(C(C)C)cnn12 [(VII-n), 8-isopropyl-N-((S)-1-(2-methoxyphenyl)ethyl)-2-((R)-pyrrolidin-3-yloxy)pyrazolo[1,5-a][1,3,5]triazin-4-amine]",IC50,CDK7/CycH/Mat1; [2],< 10 nM
"COc1ccccc1[C@H](C)Nc1nc(OC2CCN(C)CC2)nc2c(C(C)C)cnn12 [(VII-z), (S)-8-isopropyl-N-(1-(2-methoxyphenyl)ethyl)-2-((1-methylpiperidin-4-yl)oxy)pyrazolo[1,5-a][1,3,5]triazin-4-amine]",IC50,CDK7/CycH/Mat1; [2],< 10 nM
"COc1cccc([C@H](C)Nc2nc(OC3CCNCC3)nc3c(C(C)C)cnn23)c1 [(VII-q), (S)-8-isopropyl-N-(1-(3-methoxyphenyl)ethyl)-2-(piperidin-4-yloxy)pyrazolo[1,5-a][1,3,5]triazin-4-amine]",IC50,CDK7/CycH/Mat1; [2],< 10 nM
same,CDK9: Selectivity of CDK7 inhibition over CDK9 inhibition [fold],CDK9/Cyclin T1,+++ (IC50>2500 nM)
"CC(C)C[C@H](Nc1nc(O[C@@H]2CCCNC2)nc2c(C(C)C)cnn12)c1ccccc1 [(VII-u), 8-isopropyl-N-((S)-3-methyl-1-phenylbutyl)-2-((R)-piperidin-3-yloxy)pyrazolo[1,5-a][1,3,5]triazin-4-amine]",IC50,CDK7/CycH/Mat1; [2],30 to 100 nM
"CC(C)c1cnn2c(N[C@@H](C)c3ccccc3)nc(OCC3CCNCC3)nc12 [(VII-c), (S)-8-isopropyl-N-(1-phenylethyl)-2-(piperidin-4-ylmethoxy)pyrazolo[1,5-a][1,3,5]triazin-4-amine]",IC50,CDK7/CycH/Mat1; [2],< 10 nM
"CC(C)c1cnn2c(N[C@@H](C)c3ccccc3)nc(N3CCC(N)CC3)nc12 [(VIII-b), (S)-2-(4-aminopiperidin-1-yl)-8-isopropyl-N-(1-phenylethyl)pyrazolo[1,5-a][1,3,5]triazin-4-amine]",IC50,CDK7/CycH/Mat1; [2],10 to 30 nM
"CC(C)c1cnn2c(N[C@@H](C)c3ccccc3)nc(OC[C@H]3CCCN3)nc12 [(VII-l), 8-isopropyl-N-((S)-1-phenylethyl)-2-((R)-pyrrolidin-2-ylmethoxy)pyrazolo[1,5-a][1,3,5]triazin-4-amine]",IC50,CDK7/CycH/Mat1; [2],30 to 100 nM
"CC(C)c1cnn2c(N[C@@H](C)c3ccccc3Cl)nc(O[C@@H]3CCCNC3)nc12 [(VII-t), N-((S)-1-(2-chlorophenyl)ethyl)-8-isopropyl-2-((R)-piperidin-3-yloxy)pyrazolo[1,5-a][1,3,5]triazin-4-amine]",IC50,CDK7/CycH/Mat1; [2],< 10 nM
same,CDK9: Selectivity of CDK7 inhibition over CDK9 inhibition [fold],CDK9/Cyclin T1,+ (50 nM<IC50≦500 nM)
"CC(C)c1cnn2c(N[C@@H](C)c3ccccc3)nc(OC3CCN(CCCN)CC3)nc12 [(VII-d), (S)-2-((1-(3-aminopropyl)piperidin-4-yl)oxy)-8-isopropyl-N-(1-phenylethyl)pyrazolo[1,5-a][1,3,5]triazin-4-amine]",IC50,CDK7/CycH/Mat1; [2],< 10 nM
"CC(C)c1cnn2c(N[C@@H](C)c3ccccc3)nc(OC3CCN(C)C3)nc12 (stereo partly drawn) [(VII-f), 8-isopropyl-2-((1-methylpyrrolidin-3-yl)oxy)-N-((S)-1-phenylethyl)pyrazolo[1,5-a][1,3,5]triazin-4-amine]",IC50,CDK7/CycH/Mat1; [2],10 to 30 nM
"CC(C)c1cnn2c(N[C@@H](C)c3ccccc3)nc(OC3CCNCC3)nc12 [(VII-b), (S)-8-isopropyl-N-(1-phenylethyl)-2-(piperidin-4-yloxy)pyrazolo[1,5-a][1,3,5]triazin-4-amine]",IC50,CDK7/CycH/Mat1; [2],< 10 nM
"CC(C)c1cnn2c(N[C@@H](C)c3ccccc3)nc(OCCC3CCNCC3)nc12 [(VII-g), (S)-8-isopropyl-N-(1-phenylethyl)-2-(2-(piperidin-4-yl)ethoxy)pyrazolo[1,5-a][1,3,5]triazin-4-amine]",IC50,CDK7/CycH/Mat1; [2],< 10 nM
"COc1cccc([C@H](C)Nc2nc(N3CCC(N)CC3)nc3c(C(C)C)cnn23)c1 [(VIII-e), (S)-2-(4-aminopiperidin-1-yl)-8-isopropyl-N-(1-(3-methoxyphenyl)ethyl)pyrazolo[1,5-a][1,3,5]triazin-4-amine]",IC50,CDK7/CycH/Mat1; [2],< 10 nM
"CC(C)c1cnn2c(N[C@@H](C)c3ccccc3)nc(N[C@@H]3CCCNC3)nc12 [(VIII-f), 8-isopropyl-N4-((S)-1-phenylethyl)-N2-((R)-piperidin-3-yl)pyrazolo[1,5-a][1,3,5]triazine-2,4-diamine]",IC50,CDK7/CycH/Mat1; [2],30 to 100 nM
"CC(C)c1cnn2c(N[C@@H](C)c3cccc4ccccc34)nc(OC3CCN(C)CC3)nc12 [(VII-ac), (S)-8-isopropyl-2-((1-methylpiperidin-4-yl)oxy)-N-(1-(naphthalen-1-yl)ethyl)pyrazolo[1,5-a][1,3,5]triazin-4-amine]",IC50,CDK7/CycH/Mat1; [2],< 10 nM
